Assay results published in article PMC12858405, “Ideal efficacy photoswitching for chromocontrol of TRPC4/5 channel functions in live tissues” (Nature Chemical Biology, 2026).

Experiments:
[1] = tested on: mouse small intestine segments; test: Spontaneous motility of atropine-paralysed intestinal segments, video imaging with 365/447 nm
Text: Müller, Niemeyer, et al., Schaefer & Thorn-Seshold 2025: Ideal Efficacy Photoswitching of TRPC4/5 in Tissue 7 Spontaneous motility and isometric contractility (Fig. 6)
After sacrificing mice in accordance to the European (Council Directive 2010/63/EU) and German guidelines for the welfare of experimental animals, the abdomen was opened, and intestinal loops were mobilised. Ileal segments were obtained starting 10 mm from the ileocoecal junction. Ileal segments with a length of 3 mm for myography experiments or with a length of 8-12 mm for observation of spontaneous movement were cut out and flushed with carbogen-equilibrated KBRS.
The adventitial layer was carefully peeled off, using a pair of forceps. […]
Spontaneous motility: for macroscopic observation, ileal segments were placed in KBRS-filled 24-well plates, and treated with 300 nM atropine (which has long been known to override the inherent oscillatory bias of the gut nerve system to paralyse digestion) or its solvent. […] A time-lapse movie was recorded, and 365 nm or 447 nm LED were electronically switched to induce photoswitching. The recorded image stack was cut into substacks, covering a single well, each. The temporal variance of the shadow cast by the segments was calculated for consecutive 1 s bins and taken as a measure to obtain the temporal signature of the motility. […]

PSS E/Z ratios by HPLC = assay type: physicochemical; conditions: for PSS % E at 330 nm / PSS % E at 340 nm / PSS % E at 350 nm / PSS % E at 360 nm / PSS % E at 370 nm / PSS % E at 380 nm / PSS % E at 390 nm / PSS % E at 400 nm / PSS % E at 410 nm / PSS % E at 420 nm / PSS % E at 430 nm / PSS % E at 440 nm / PSS % E at 450 nm / PSS % E at 460 nm / PSS % E at 470 nm / PSS % E at 480 nm / PSS % E at 490 nm / PSS % E at 500 nm / PSS % Z at 330 nm / PSS % Z at 340 nm / PSS % Z at 350 nm / PSS % Z at 360 nm / PSS % Z at 370 nm / PSS % Z at 380 nm / PSS % Z at 390 nm / PSS % Z at 400 nm / PSS % Z at 410 nm / PSS % Z at 420 nm / PSS % Z at 430 nm / PSS % Z at 440 nm / PSS % Z at 450 nm / PSS % Z at 460 nm / PSS % Z at 470 nm / PSS % Z at 480 nm / PSS % Z at 490 nm / PSS % Z at 500 nm: monochromator, HPLC integration (296 nm)
Experimental: UV-VIS. UV-Vis spectra were recorded on an Agilent Cary 60 UV-Vis spectrophotometer using 1 cm quartz or PMMA cuvettes. All photoisomerisations were performed at room temperature in non-degassed solvents unless stated differently. Samples were irradiated with either a CoolLED pE-4000 or Polycon V monochromator (TILL Photonics, Gräfelfing, Germany) by shining from the […]
differently, all measurements were performed at a default concentration of 20 μM. Dark state refers […]
methods followed standard practices39–41. All-E and PSS spectra are shown in Supplementary […]
HPLC for PSS E/Z ratios. Analytical HPLC was performed on an Agilent 1200 SL with (a) a binary pump able to deliver H2O:MeCN eluent mixtures containing 0.1% formic acid at a 1 mL/min flow rate [for PSS measurements of final compounds, only MeCN was used], (b) YMC Carotenoid 5 µm, […]
(100 µM, MeCN) in HPLC vials were irradiated for at least 6 min from top with the monochromator […]
separate well); PSS ratio was then determined by integrating the signal at an isosbestic region

SMILES | PSS %E around 410 nm (PSS E/Z ratios by HPLC) | PSS %Z around 360 nm (PSS E/Z ratios by HPLC) [%] | PSS % E at 330 nm (PSS E/Z ratios by HPLC) [%] | PSS % E at 340 nm (PSS E/Z ratios by HPLC) [%] | PSS % E at 350 nm (PSS E/Z ratios by HPLC) [%] | PSS % E at 360 nm (PSS E/Z ratios by HPLC) [%] | PSS % E at 370 nm (PSS E/Z ratios by HPLC) [%] | PSS % E at 380 nm (PSS E/Z ratios by HPLC) [%] | PSS % E at 390 nm (PSS E/Z ratios by HPLC) [%] | PSS % E at 400 nm (PSS E/Z ratios by HPLC) [%] | PSS % E at 410 nm (PSS E/Z ratios by HPLC) [%] | PSS % E at 420 nm (PSS E/Z ratios by HPLC) [%] | PSS % E at 430 nm (PSS E/Z ratios by HPLC) [%] | PSS % E at 440 nm (PSS E/Z ratios by HPLC) [%] | PSS % E at 450 nm (PSS E/Z ratios by HPLC) [%] | PSS % E at 460 nm (PSS E/Z ratios by HPLC) [%] | PSS % E at 470 nm (PSS E/Z ratios by HPLC) [%] | PSS % E at 480 nm (PSS E/Z ratios by HPLC) [%] | PSS % E at 490 nm (PSS E/Z ratios by HPLC) [%] | PSS % E at 500 nm (PSS E/Z ratios by HPLC) [%] | further results
Cn1c(=O)n(CCCO)c(=O)c2c1nc(Oc1ccc(N=Nc3ccccc3)c(OC(F)(F)F)c1)n2Cc1ccc(Cl)cc1 [AzPico] | ~ 82% | 95 | 16 | 8 | 5 | 5 | 11 | 23 | 38 | 79 | 84 | 84 | 82 | 80 | 77 | 74 | 70 | 67 | 64 | 61 | Response of atropine-paralysed small intestine segments to UV illumination ([1]; 10 nM, 300 nM atropine, stopped by 447 nm): initiated vigorous motions; Photoresponse of colon segments ([1]; treated colon segments): no photoresponse; PSS % Z at 330 nm (PSS E/Z ratios by HPLC): 84%; PSS % Z at 340 nm (PSS E/Z ratios by HPLC): 92%; PSS % Z at 350 nm (PSS E/Z ratios by HPLC): 95%; PSS % Z at 360 nm (PSS E/Z ratios by HPLC): 95%; PSS % Z at 370 nm (PSS E/Z ratios by HPLC): 89%; PSS % Z at 380 nm (PSS E/Z ratios by HPLC): 77%; PSS % Z at 390 nm (PSS E/Z ratios by HPLC): 62%; PSS % Z at 400 nm (PSS E/Z ratios by HPLC): 21%; PSS % Z at 410 nm (PSS E/Z ratios by HPLC): 16%; PSS % Z at 420 nm (PSS E/Z ratios by HPLC): 16%; PSS % Z at 430 nm (PSS E/Z ratios by HPLC): 18%; PSS % Z at 440 nm (PSS E/Z ratios by HPLC): 20%; PSS % Z at 450 nm (PSS E/Z ratios by HPLC): 23%; PSS % Z at 460 nm (PSS E/Z ratios by HPLC): 27%; PSS % Z at 470 nm (PSS E/Z ratios by HPLC): 30%; PSS % Z at 480 nm (PSS E/Z ratios by HPLC): 33%; PSS % Z at 490 nm (PSS E/Z ratios by HPLC): 36%; PSS % Z at 500 nm (PSS E/Z ratios by HPLC): 39%
Cn1c(=O)n(CCCO)c(=O)c2c1nc(Oc1ccc(N=Nc3ccccc3)c(Cl)c1)n2Cc1ccc(Cl)cc1 [AzHC] | ~ 82% | 95 | 21 | 6 | 4 | 4 | 7 | 23 | 52 | 74 | 81 | 80 | 79 | 76 | 72 | 68 | 63 | 59 | 55 | 52 | PSS % Z at 330 nm (PSS E/Z ratios by HPLC): 79%; PSS % Z at 340 nm (PSS E/Z ratios by HPLC): 94%; PSS % Z at 350 nm (PSS E/Z ratios by HPLC): 96%; PSS % Z at 360 nm (PSS E/Z ratios by HPLC): 96%; PSS % Z at 370 nm (PSS E/Z ratios by HPLC): 93%; PSS % Z at 380 nm (PSS E/Z ratios by HPLC): 78%; PSS % Z at 390 nm (PSS E/Z ratios by HPLC): 48%; PSS % Z at 400 nm (PSS E/Z ratios by HPLC): 26%; PSS % Z at 410 nm (PSS E/Z ratios by HPLC): 19%; PSS % Z at 420 nm (PSS E/Z ratios by HPLC): 20%; PSS % Z at 430 nm (PSS E/Z ratios by HPLC): 21%; PSS % Z at 440 nm (PSS E/Z ratios by HPLC): 24%; PSS % Z at 450 nm (PSS E/Z ratios by HPLC): 28%; PSS % Z at 460 nm (PSS E/Z ratios by HPLC): 32%; PSS % Z at 470 nm (PSS E/Z ratios by HPLC): 37%; PSS % Z at 480 nm (PSS E/Z ratios by HPLC): 41%; PSS % Z at 490 nm (PSS E/Z ratios by HPLC): 45%; PSS % Z at 500 nm (PSS E/Z ratios by HPLC): 48%
